According to patent US11072628B2, “Nucleoside analogues for the treatment of parasitic infections” (UNIVERSITEIT GENT, priority 2017, dated 2021):
pEC50: −log10 of the molar value. Entries after “also recorded” stand apart in the source; their conditions may differ. Like-named read-outs stand apart in the source and are kept apart here.

Legend:
[1] = Cytotoxicity against MRC-5 fibroblasts; details: human, MRC-5 fibroblasts, cytotoxicity
Protocol: Cytotoxicity was assayed against MRC-5 fibroblasts. Results are depicted in Tables 4 and 5.

[2] = system: T. b. rhodesiense STIB-900; assay: In vitro drug susceptibility, T. b. rhodesiense STIB-900 (resazurin); type: cell-based, Trypanosoma brucei rhodesiense; details: Trypanosoma brucei, RHODESIENSE, read-out: T. brucei rhod. EC50
Protocol: (§1) All trypanosome strains were cultured in the standard HMI-9 medium supplemented with 10% fetal bovine serum (FBS) at 37° C. in a 5% CO2 atmosphere.

[3] = system: T. cruzi Tulahuen CL2 β galactosidase strain; assay: T. cruzi Tulahuen CL2 β galactosidase strain on MRC-5SV2 cells (CPRG); type: cell-based, Trypanosoma cruzi; details: Trypanosoma cruzi, TULAHUEN, MRC-5 SV2
Protocol: All cultures and assays were conducted at 37° C./5% CO2. […] The results were expressed as % reduction in parasite burdens compared to control wells from which an EC50 was calculated.

T. b. brucei Squib 427 [4] = assay: In vivo antiparasitic activity in mice (T. brucei; acute model); parameters: species or system Trypanosoma brucei brucei
Protocol: The test compound of the invention was formulated in 10% (V/V) PEG400 in water at 2 mg/mL and was freshly prepared at every administration. The test compound was administered orally (PO) b.i.d. for 5 days at 25 mg/kg. The reference drug suramin was formulated in PBS at 2.5 mg/mL and administered s.i.d. IP for 5 days at 10 mg/kg. Treatment was initiated ½ hour prior to the IP infection.

T. brucei AnTAR1 PPYRE9 = assay: In vivo antiparasitic activity in mice (T. brucei; stage-II disease model); parameters: species or system Trypanosoma brucei; details: treatment from 21 dpi for 5 days; 25 mg/kg PO b.i.d. or 25, 12.5 or 6.25 mg/kg s.i.d.
Protocol: The test compound, FH7429_D was formulated in 5% (V/V) Tween80 at 4 mg/mL and administered according to body weight (25 mg/kg bid., oral gavage) for 5 days. Treatment commenced at 21 dpi, in mice which had positive CNS involvement (BLI). Two reference groups: vehicle control as well as melarsoprol (120 mg/kg, s.i.d. topical for 3 days) were included. Topical melarsoprol formulation was prepared as following: 3.6% melarsprol in propylene glycol was used to prepare a 1.5% hydroxypropylcellulose (HPC) gel.
Parasitemia analysis was performed by microscopic evaluation of tail vein blood samples at 21 (before treatment initiation), 25, 28, 32 and 35 dpi. Bioluminescent imaging (BLI) was performed at 7, 14, 21, 28, 35, 43, 50 and 53 dpi. BLI experiments were performed as following: D-luciferin (15 mg/kg) was injected intraperitoneally, and mice were subsequently anaesthetized using isoflurane. The luminescent signal was measured over a 5 second as well as 5-minute exposure time, both for the ventral as well as the dorsal side of the animals.

T. brucei Squib 427 = assay: In vitro drug susceptibility, T. brucei Squib 427 (resazurin); type: cell-based, Trypanosoma brucei brucei; details: for pEC50: Trypanosoma brucei
Protocol: as §1

[5] = system: T. vaginalis trophozoites (metronidazole susceptible G3 strain); assay: Trichomonas vaginalis in vitro assay; type: cell-based; details: Trichomonas vaginalis, average of 2-5 independent replicates
Protocol: T. vaginalis trophozoites (metronidazole susceptible G3 strain) were grown in vitro in modified Diamond's media (MDM) with 10% heat inactivated horse serum (HIHS) acquired from Gibco Life Technologies. After medium preparation, the pH was adjusted to 6.3-6.4 employing 1.0 M aq. HCl. Parasites cultures were passaged every day by taking 1 mL of cell culture into a 25 mL bottle of fresh media to ensure the cells were kept at the appropriate concentration of ˜2×10^6 cells/mL. The culture flasks were filled completely and tightly capped to provide the cells with an anaerobic environment. The parasites were maintained in incubation at 37° C. When culturing in multiwell plates, the plates were sealed with Nescofilm® and inserted in BD GasPak EZ pouches (BD Diagnostics, UK) in order to create anaerobic conditions. Assays were performed with 5×10^4 trophozoites/well (100 μL) to which compound dilutions were added (100 μL). Outside wells of columns and rows were filled with 200 μL of sterile water. Plates were sealed with Nescofilm® and incubated under anaerobic conditions as described above. After 24 h, 30 μL of assay dye solution (resorufin) was added, and incubated for 1-2 h before being read using Fluostar Optima (BMG Labtech, UK) at an excitation wavelength of 544 nm and an emission wavelength of 620 nm.

T. cruzi (Y-strain) = assay: In vivo antiparasitic activity in mice (T. cruzi Y-strain); parameters: species or system Trypanosoma cruzi; details: 25 mg/kg PO b.i.d. for five days starting at 5 dpi
Protocol: The animals were allowed to acclimate for 7 days before starting the experiments. […] Age-matched non-infected mice were maintained under identical conditions. The animals were divided into the following groups (n=6): uninfected (non-infected and non-treated), untreated (infected but treated only with vehicle), and treated (infected and treated with the compounds). […] Formulations were prepared freshly before each administration. Only mice with positive parasitemia were used in the infected groups. Parasitemia was individually checked by direct microscopic counting of the number of parasites in 5 μl of blood (Panel A—FIG. 5), and mice were checked for mortality daily until 30 days post-treatment (corresponding to 40 dpi). Mortality is expressed as the percent cumulative mortality (CM; Panel B—FIG. 5).

T. b. brucei Squib 427 [6] = details: comparison statement, not tested here; cited from earlier work
[7] = Table 2, average of 2-3 independent replicates
[8] = read-out: T. brucei brucei EC50, Table 1, average of 2-4 independent determinations

SMILES | pEC50 ([1]; MRC-5 EC50, Table 1) | pEC50 ([1]; MRC-5 EC50, Table 2) | pEC50 [2] | pEC50 [3, 7] | pEC50 (T. brucei Squib 427; [8]) | blood parasitemia (T. cruzi (Y-strain)) | mortality caused by the infection (T. cruzi (Y-strain)) | other results
Nc1ncnc2c1ccn2[C@@H]1O[C@H](CO)C[C@H]1O [FH7429_D, 4-amino-N7-(3′-deoxy-β-D-ribofuranosyl)-pyrrolo[2,3-d]pyrimidine] | < 4.19 | < 4.19 | 9.30 | < 4.19 | 7.30 | – | – | parasitological cure (sub-inoculation in naive mice) (T. b. brucei Squib 427 [4]; animals surviving until day 21 post infection): total parasitological cure; also recorded: able cure an acute infection; clinical symptoms of trypanosomiasis / parasitemia (T. b. brucei Squib 427 [4]; infected mice, 5 consecutive days, test compound 25 mg/kg PO b.i.d. (FH7429_D also 10 mg/kg s.i.d. IP), suramin 10 mg/kg): no clinical symptoms of trypanosomiasis were observed; adverse drug effects (T. b. brucei Squib 427 [4]; mice, 5 days treatment): No signs of adverse drug effects were observed; cure in stage-II HAT model (T. brucei AnTAR1 PPYRE9): considered cured; parasitemia (BLI or tail vein blood analysis) (T. brucei AnTAR1 PPYRE9): did not show any signs of parasitemia from 28 dpi onwards
Nc1ncnc2c1c(-c1ccc(Cl)cc1)cn2[C@@H]1O[C@H](CO)C[C@H]1O [FH8512, 4-amino-5-(4-chlorophenyl)-N7-(3′-deoxy-β-D-ribofuranosyl)-pyrrolo[2,3-d]pyrimidine] | 4.72 | 4.72 | 5.74 | 7.30 | 5.64 | suppress blood parasitemia | protect animals from mortality | pEC50 ([5]; Table 3): 6.77
Nc1ncnc2c1c(-c1ccc(Cl)cc1)cn2[C@@H]1O[C@H](CO)[C@@H](O)[C@H]1O [TH1012, 4-amino-5-(4-chlorophenyl)-N7-(β-D-ribofuranosyl)-pyrrolo[2,3-d]pyrimidine] | – | – | – | – | – | full suppression of parasitemia | protected animals from mortality | pEC50 ([5]; Table 6): 7.52; pEC50 ([1]; MRC-5 EC50, Table 4): 4.57; pEC50 ([1]; MRC-5 EC50, Table 5): 4.57; pEC50 ([3]; Table 5, average of 2-4 independent replicates): 6.33; anti-trypanosomal activity against T. brucei, in words (T. brucei Squib 427): low μM EC50; pEC50 (T. brucei Squib 427; read-out: T.b. brucei EC50, Table 4, average of 2-6 independent determinations): 5.12
Nc1ncnc2c1ncn2[C@@H]1O[C@H](CO)C[C@H]1O [cordycepin, 3′-deoxy-adenosine] | – | – | – | – | – | – | – | clearance of T. brucei infection as a monotherapy (T. b. brucei Squib 427 [6]): unable to clear the infection
